Experimental data taken from ChEMBL document CHEMBL4507327 (2021).
Each block holds one compound with its values, some of them ahead of it. The source made the active and inactive calls. No cut-off for these calls is given here.

Tests used:
[1] = biological target: Dual specificity tyrosine-phosphorylation-regulated kinase 1B (Homo sapiens, UniProt Q9Y463); assay: DYRK1B(DY1BLHY1) Takeda global kinase panel
[2] = biological target: Adenosine receptor A2a (Homo sapiens) (UniProt P29274); conditions: Compound concentration 10.0 uM
[3] = biological target: Tyrosine-protein kinase ABL2 (Homo sapiens, UniProt P42684); assay: Arg(ABL2LGF1) Takeda global kinase panel
[4] = biological target: Cyclin-dependent kinase 3 (Homo sapiens, UniProt Q00526); assay: CDK3(CDK3CGS1) Takeda global kinase panel
Cyclin-dependent kinase 3, sequence (Q00526 whole entry): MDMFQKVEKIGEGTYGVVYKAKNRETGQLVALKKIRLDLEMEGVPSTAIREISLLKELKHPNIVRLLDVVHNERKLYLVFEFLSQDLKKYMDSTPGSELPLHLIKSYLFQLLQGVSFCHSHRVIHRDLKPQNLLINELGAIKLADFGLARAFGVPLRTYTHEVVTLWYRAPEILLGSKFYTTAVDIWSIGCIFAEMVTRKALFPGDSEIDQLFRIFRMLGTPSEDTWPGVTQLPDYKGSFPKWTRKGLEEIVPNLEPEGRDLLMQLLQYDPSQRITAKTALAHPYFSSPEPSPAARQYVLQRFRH

[5] = biological target: Serine/threonine-protein kinase 32C (Homo sapiens, UniProt Q86UX6); assay: YANK3(S32CLGI1) Takeda global kinase panel
[6] = biological target: Mitotic checkpoint serine/threonine-protein kinase BUB1 (Homo sapiens, UniProt O43683); assay: Bub1(BUB1LGRL) Takeda global kinase panel
[7] = biological target: Cell division cycle 7-related protein kinase (Homo sapiens, UniProt O00311); assay: CDC7(CDC7CGP1) Takeda global kinase panel
[8] = biological target: Sodium-dependent noradrenaline transporter (Homo sapiens) (UniProt P23975); conditions: Compound concentration 10.0 uM
[9] = biological target: Death-associated protein kinase 1 (Homo sapiens, UniProt P53355); assay: DAPK1(DAP1LGF1) Takeda global kinase panel
Aurora kinase B = Aurora kinase B (Homo sapiens, UniProt Q96GD4); assay: AurB [Aur1(AURBPGE1)] Takeda global kinase panel
[10] = biological target: Serine/threonine-protein kinase ULK1 (Homo sapiens, UniProt O75385); assay: ULK1(ULK1LGF1) Takeda global kinase panel
[11] = biological target: Phosphorylase b kinase gamma catalytic chain, skeletal muscle/heart isoform (Homo sapiens, UniProt Q16816); assay: PhKgamma1(PHG1LHY1) Takeda global kinase panel
[12] = biological target: Mitogen-activated protein kinase 3 (Homo sapiens, UniProt P27361); assay: ERK1(MAP3LGY1) Takeda global kinase panel
[13] = biological target: Cannabinoid receptor 1 (Homo sapiens) (UniProt P21554); assay: Inhibition of Cannabinoid CB1 at compound concentration of 10.0 uM in the Eurofins-Panlabs radioligand binding assay (Eurofins_assay_217050); parameters: ligand concentration 2 nM; conditions: Compound concentration 10.0 uM
Cannabinoid receptor 1 (Homo sapiens), sequence (P21554 whole entry, canonical isoform): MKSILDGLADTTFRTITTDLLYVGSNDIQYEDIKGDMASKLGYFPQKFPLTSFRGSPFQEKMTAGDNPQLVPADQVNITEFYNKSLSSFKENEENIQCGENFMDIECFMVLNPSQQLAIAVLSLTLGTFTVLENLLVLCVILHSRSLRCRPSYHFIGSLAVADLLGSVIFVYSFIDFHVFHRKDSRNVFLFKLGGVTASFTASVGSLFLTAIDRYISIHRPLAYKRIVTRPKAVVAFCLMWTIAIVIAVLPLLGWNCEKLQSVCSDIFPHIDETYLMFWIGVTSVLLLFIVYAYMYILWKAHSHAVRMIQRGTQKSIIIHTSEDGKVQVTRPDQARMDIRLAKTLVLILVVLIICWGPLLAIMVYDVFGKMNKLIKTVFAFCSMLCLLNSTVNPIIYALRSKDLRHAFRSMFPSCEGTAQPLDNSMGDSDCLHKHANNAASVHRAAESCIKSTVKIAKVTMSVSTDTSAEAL

[14] = biological target: Phosphatidylinositol 4,5-bisphosphate 3-kinase catalytic subunit alpha isoform (Homo sapiens, UniProt P42336); assay: PI3KCA(PI3ACGR1) Takeda global kinase panel
Ephrin type-A receptor 5 = Ephrin type-A receptor 5 (Homo sapiens, UniProt P54756); assay: EphA5(EPA5MGF1) Takeda global kinase panel
[15] = biological target: Mitogen-activated protein kinase 8 (Homo sapiens, UniProt P45983); assay: JNK1(MAP8LGF1) Takeda global kinase panel
[16] = biological target: Serine/threonine-protein kinase Nek9 (Homo sapiens, UniProt Q8TD19); assay: Nek9(NEK9LGF1) Takeda global kinase panel
Serine/threonine-protein kinase Nek9, sequence (Q8TD19 whole entry): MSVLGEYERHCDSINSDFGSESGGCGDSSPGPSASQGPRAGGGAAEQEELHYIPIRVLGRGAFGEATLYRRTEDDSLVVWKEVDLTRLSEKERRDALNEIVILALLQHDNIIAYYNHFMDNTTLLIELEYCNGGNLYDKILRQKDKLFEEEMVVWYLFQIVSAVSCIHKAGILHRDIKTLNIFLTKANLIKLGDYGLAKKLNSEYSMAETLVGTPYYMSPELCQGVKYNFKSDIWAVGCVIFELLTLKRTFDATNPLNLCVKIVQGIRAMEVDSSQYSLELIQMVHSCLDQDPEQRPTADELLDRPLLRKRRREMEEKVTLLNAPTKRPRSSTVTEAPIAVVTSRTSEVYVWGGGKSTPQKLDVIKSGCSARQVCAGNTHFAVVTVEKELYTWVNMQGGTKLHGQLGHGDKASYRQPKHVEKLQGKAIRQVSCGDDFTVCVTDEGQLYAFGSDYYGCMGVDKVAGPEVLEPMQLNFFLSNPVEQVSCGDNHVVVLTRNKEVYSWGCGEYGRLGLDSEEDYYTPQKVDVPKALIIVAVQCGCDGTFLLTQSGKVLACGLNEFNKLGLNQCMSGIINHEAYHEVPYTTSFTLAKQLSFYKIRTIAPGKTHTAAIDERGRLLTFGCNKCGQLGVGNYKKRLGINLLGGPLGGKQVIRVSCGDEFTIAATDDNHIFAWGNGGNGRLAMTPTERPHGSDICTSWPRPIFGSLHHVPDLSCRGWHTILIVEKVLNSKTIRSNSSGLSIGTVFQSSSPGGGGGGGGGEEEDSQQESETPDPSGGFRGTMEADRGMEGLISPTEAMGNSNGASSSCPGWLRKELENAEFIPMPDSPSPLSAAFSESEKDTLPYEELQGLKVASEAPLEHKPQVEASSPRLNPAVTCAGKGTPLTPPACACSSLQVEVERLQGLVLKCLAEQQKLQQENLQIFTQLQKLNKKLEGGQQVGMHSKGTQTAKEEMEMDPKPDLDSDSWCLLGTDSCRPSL

[17] = biological target: Serine/threonine-protein kinase TNNI3K (Homo sapiens, UniProt Q59H18); assay: HH498(TNNILGY1) Takeda global kinase panel
[18] = biological target: Mitogen-activated protein kinase kinase kinase kinase 1 (Homo sapiens, UniProt Q92918); assay: HPK1(M4K1LGY1) Takeda global kinase panel
[19] = biological target: Dual specificity tyrosine-phosphorylation-regulated kinase 1A (Homo sapiens, UniProt Q13627); assay: DYRK1A(DY1ALGP1) Takeda global kinase panel
[20] = biological target: Death-associated protein kinase 2 (Homo sapiens, UniProt Q9UIK4); assay: DAPK2(DAP2LGF1) Takeda global kinase panel
[21] = biological target: Myosin light chain kinase, smooth muscle (Homo sapiens, UniProt Q15746); assay: smMLCK(MYL1LGF1) Takeda global kinase panel
[22] = biological target: Serine/threonine-protein kinase H1 (Homo sapiens, UniProt P11801); assay: PSKH1(PSH1LGRH) Takeda global kinase panel
Serine/threonine-protein kinase H1, sequence (P11801 whole entry, canonical isoform): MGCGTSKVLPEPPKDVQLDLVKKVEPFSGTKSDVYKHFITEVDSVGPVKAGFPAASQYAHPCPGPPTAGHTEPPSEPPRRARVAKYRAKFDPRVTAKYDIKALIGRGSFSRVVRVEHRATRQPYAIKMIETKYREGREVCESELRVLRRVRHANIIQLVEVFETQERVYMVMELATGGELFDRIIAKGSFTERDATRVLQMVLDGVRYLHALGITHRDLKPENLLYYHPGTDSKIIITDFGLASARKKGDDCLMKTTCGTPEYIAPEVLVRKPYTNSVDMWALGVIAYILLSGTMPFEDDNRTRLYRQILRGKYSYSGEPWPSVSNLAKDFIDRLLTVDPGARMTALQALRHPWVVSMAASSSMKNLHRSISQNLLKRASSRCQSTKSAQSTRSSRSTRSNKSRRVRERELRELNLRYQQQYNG

[23] = biological target: Casein kinase I isoform alpha-like (Homo sapiens, UniProt Q8N752); assay: CK1alpha2(C1ALLGI5) Takeda global kinase panel
[24] = biological target: Microtubule-associated serine/threonine-protein kinase 3 (Homo sapiens, UniProt O60307); assay: MAST3(MAS3LGE1) Takeda global kinase panel
[25] = biological target: Receptor-interacting serine/threonine-protein kinase 2 (Homo sapiens, UniProt O43353); assay: RIPK2(RIP2LGI1) Takeda global kinase panel
[26] = biological target: Serine/threonine-protein kinase VRK2 (Homo sapiens, UniProt Q86Y07); assay: VRK2(VRK2LGRI) Takeda global kinase panel
[27] = biological target: cAMP-dependent protein kinase catalytic subunit PRKX (Homo sapiens, UniProt P51817); assay: PRKX(PRKXLGH5) Takeda global kinase panel
cAMP-dependent protein kinase catalytic subunit PRKX, sequence (P51817 whole entry): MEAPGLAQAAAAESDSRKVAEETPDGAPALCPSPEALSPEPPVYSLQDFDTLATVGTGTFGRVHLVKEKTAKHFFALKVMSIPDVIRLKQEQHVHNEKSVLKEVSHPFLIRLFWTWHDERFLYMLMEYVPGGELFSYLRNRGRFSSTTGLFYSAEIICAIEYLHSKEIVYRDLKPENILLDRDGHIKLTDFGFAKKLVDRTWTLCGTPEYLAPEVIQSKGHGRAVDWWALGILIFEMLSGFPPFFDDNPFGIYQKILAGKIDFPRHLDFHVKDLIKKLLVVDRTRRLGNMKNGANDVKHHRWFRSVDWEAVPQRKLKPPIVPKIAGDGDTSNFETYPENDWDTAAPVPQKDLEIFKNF

[28] = biological target: Adenosine receptor A1 (Homo sapiens) (UniProt P30542); conditions: Compound concentration 10.0 uM
Adenosine receptor A1 (Homo sapiens), sequence (P30542 whole entry): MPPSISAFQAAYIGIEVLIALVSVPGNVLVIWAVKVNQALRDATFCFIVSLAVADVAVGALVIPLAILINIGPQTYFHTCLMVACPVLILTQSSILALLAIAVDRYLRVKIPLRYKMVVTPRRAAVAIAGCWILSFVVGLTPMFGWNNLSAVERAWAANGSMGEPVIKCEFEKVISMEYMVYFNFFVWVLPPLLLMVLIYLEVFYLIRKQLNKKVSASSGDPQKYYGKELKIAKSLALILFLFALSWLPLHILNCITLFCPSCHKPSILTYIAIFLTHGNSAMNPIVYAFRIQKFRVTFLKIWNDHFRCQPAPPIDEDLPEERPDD

[29] = biological target: Serine/threonine-protein kinase VRK1 (Homo sapiens, UniProt Q99986); assay: VRK1(VRK1LGRI) Takeda global kinase panel
[30] = biological target: Serine/threonine-protein kinase ICK (Homo sapiens, UniProt Q9UPZ9); assay: ICK(ICK1LGP1) Takeda global kinase panel
[31] = biological target: Substance-P receptor (Homo sapiens) (UniProt P25103); assay: Inhibition of Tachykinin NK1 at 10 µM in the Eurofins-Panlabs radioligand binding assay (Eurofins_assay_255520); parameters: ligand concentration 0.8 nM; conditions: Compound concentration 10.0 uM
[32] = biological target: Dual specificity mitogen-activated protein kinase kinase 1 (Homo sapiens, UniProt Q02750); assay: MEK1 [MAP2K1(M2K1LGF1)] Takeda global kinase panel
eIF-2-alpha kinase GCN2 = eIF-2-alpha kinase GCN2 (Homo sapiens, UniProt Q9P2K8); assay: GCN2(EIK4PHK1) Takeda global kinase panel
[33] = biological target: Mitogen-activated protein kinase 14 (Homo sapiens, UniProt Q16539); assay: p38alpha(MP14LGI1) Takeda global kinase panel
[34] = biological target: Tyrosine-protein kinase receptor UFO (Homo sapiens, UniProt P30530); assay: Axl(AXL1LGY1) Takeda global kinase panel
Tyrosine-protein kinase receptor UFO, sequence (P30530 whole entry): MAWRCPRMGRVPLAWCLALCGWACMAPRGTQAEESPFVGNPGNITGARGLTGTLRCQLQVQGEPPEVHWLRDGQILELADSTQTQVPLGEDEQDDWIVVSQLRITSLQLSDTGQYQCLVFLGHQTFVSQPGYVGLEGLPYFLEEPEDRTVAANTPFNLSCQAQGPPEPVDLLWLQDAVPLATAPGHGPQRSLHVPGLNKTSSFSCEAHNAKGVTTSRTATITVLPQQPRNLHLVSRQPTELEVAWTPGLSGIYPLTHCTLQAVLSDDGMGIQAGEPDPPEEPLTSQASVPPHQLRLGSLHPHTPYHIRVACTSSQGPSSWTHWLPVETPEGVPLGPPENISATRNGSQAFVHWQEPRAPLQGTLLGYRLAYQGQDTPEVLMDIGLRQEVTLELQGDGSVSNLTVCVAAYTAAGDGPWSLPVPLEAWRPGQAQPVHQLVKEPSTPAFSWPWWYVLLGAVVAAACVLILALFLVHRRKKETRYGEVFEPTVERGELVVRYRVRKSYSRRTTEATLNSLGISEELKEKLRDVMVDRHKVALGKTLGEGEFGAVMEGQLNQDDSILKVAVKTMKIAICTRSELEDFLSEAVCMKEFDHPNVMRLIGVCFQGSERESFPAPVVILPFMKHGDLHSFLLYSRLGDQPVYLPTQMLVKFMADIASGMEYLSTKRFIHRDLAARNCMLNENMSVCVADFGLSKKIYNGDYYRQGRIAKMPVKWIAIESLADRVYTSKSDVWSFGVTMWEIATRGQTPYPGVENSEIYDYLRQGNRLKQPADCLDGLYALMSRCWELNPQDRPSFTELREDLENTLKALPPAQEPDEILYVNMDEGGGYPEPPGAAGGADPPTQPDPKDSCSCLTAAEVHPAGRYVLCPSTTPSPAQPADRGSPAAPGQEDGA

[35] = biological target: Receptor-interacting serine/threonine-protein kinase 1 (Mus musculus, UniProt Q60855); assay: TR-FRET (mouse RIPK1)
[36] = biological target: Serine/threonine-protein kinase N1 (Homo sapiens, UniProt Q16512); assay: PKN1 [PRK1(PKN1LGY1)] Takeda global kinase panel
[37] = biological target: Cyclin-dependent kinase 12 (Homo sapiens, UniProt Q9NYV4); assay: CRK7(CD12PHS1) Takeda global kinase panel
[38] = biological target: Serine/threonine-protein kinase RIO2 (Homo sapiens, UniProt Q9BVS4); assay: RIOK2(RIO2LGF1) Takeda global kinase panel
Serine/threonine-protein kinase RIO2, sequence (Q9BVS4 whole entry): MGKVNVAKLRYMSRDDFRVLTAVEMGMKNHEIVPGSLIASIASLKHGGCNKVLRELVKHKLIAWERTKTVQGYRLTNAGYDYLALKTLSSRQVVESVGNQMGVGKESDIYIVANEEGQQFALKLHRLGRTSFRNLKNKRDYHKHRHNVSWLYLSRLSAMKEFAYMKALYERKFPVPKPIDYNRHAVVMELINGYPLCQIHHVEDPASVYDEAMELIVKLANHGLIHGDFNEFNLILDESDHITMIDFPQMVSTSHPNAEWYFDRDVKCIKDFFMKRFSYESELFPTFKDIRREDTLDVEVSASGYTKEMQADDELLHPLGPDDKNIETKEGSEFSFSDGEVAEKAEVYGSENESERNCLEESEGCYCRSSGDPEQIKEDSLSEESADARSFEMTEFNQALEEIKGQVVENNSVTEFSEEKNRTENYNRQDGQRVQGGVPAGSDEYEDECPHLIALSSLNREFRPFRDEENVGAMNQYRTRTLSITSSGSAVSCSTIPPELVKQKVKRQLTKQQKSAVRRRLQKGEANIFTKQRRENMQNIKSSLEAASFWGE

[39] = biological target: Muscarinic acetylcholine receptor M3 (Homo sapiens) (UniProt P20309); conditions: Compound concentration 10.0 uM
Muscarinic acetylcholine receptor M3 (Homo sapiens), sequence (P20309 whole entry, looked up): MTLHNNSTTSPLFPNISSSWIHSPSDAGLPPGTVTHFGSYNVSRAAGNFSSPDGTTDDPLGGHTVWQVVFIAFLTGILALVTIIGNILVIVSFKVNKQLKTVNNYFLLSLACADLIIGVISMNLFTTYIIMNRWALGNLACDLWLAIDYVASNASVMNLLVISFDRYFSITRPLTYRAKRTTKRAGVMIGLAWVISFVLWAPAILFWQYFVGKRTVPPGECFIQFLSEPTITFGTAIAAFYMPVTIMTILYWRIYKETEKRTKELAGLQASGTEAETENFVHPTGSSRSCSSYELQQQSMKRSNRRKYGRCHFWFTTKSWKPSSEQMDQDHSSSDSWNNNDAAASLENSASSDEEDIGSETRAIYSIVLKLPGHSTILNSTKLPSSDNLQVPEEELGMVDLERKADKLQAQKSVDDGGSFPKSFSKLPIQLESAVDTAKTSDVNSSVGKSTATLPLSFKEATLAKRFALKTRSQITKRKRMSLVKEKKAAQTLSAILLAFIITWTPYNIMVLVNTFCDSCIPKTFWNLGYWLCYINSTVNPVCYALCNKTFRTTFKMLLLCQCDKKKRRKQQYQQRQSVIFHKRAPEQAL

[40] = biological target: Interleukin-1 receptor type 1 (Homo sapiens) (UniProt P14778); assay: Interleukin IL-1 R1 Eurofins-Panlabs radioligand binding assay; parameters: ligand concentration 0.1 nM; conditions: Compound concentration 10.0 uM
Aurora kinase A = Aurora kinase A (Homo sapiens, UniProt O14965); assay: AurA [Aur2(AURALGF1)] Takeda global kinase panel
[41] = biological target: Serine/threonine-protein kinase PAK 6 (Homo sapiens, UniProt Q9NQU5); assay: PAK6(PAK6CGY1) Takeda global kinase panel

SMILES: CN1C(=O)[C@@H](N2CCc3cn(Cc4ccccc4)nc3C2=O)COc2ccccc21 [TP-030-1]
IC50 [1]: 1 µM
inhibition [2]: 10%
IC50 [3]: 1 µM
IC50 [4]: 1 µM
IC50 [5]: 1 µM
IC50 [6]: 1 µM
IC50 [7]: 1 µM
inhibition [8]: 15%
IC50 [9]: 1 µM
IC50 (Aurora kinase B): 1 µM
IC50 [10]: 1 µM
IC50 [11]: 1 µM
IC50 [12]: 1 µM
inhibition [13]: 5%
IC50 [14]: 1 µM
IC50 (Ephrin type-A receptor 5): 1 µM
IC50 [15]: 1 µM
IC50 [16]: 1 µM
IC50 [17]: 1 µM
IC50 [18]: 1 µM
IC50 [19]: 1 µM
IC50 [20]: 1 µM
IC50 [21]: 1 µM
IC50 [22]: 1 µM
IC50 [23]: 1 µM
IC50 [24]: 1 µM
IC50 [25]: 1 µM
IC50 [26]: 1 µM
IC50 [27]: 1 µM
inhibition [28]: 7%
IC50 [29]: 1 µM
IC50 [30]: 1 µM
inhibition [31]: 29%
IC50 [32]: 1 µM
IC50 (eIF-2-alpha kinase GCN2): 1 µM
IC50 [33]: 1 µM
IC50 [34]: 1 µM
IC50 [35]: 4.2 µM (active)
IC50 [36]: 1 µM
IC50 [37]: 1 µM
IC50 [38]: 1 µM
inhibition [39]: 1%
inhibition [40]: -7%
IC50 (Aurora kinase A): 1 µM
IC50 [41]: 1 µM

IC50 [1]: 1 µM
inhibition [2]: -8%
IC50 [3]: 1 µM
IC50 [4]: 1 µM
IC50 [5]: 1 µM
IC50 [6]: 1 µM
IC50 [7]: 1 µM
inhibition [8]: 3%
IC50 (Aurora kinase B): 1 µM
IC50 [10]: 1 µM
IC50 [11]: 1 µM
IC50 [12]: 1 µM
inhibition [13]: -5%
IC50 [14]: 1 µM
IC50 (Ephrin type-A receptor 5): 1 µM
IC50 [15]: 1 µM
IC50 [17]: 1 µM
IC50 [18]: 1 µM
IC50 [19]: 1 µM
IC50 [21]: 1 µM
IC50 [22]: 1 µM
IC50 [23]: 1 µM
IC50 [24]: 1 µM
IC50 [25]: 1 µM
IC50 [26]: 1 µM
IC50 [27]: 1 µM
inhibition [28]: -2%
IC50 [29]: 1 µM
IC50 [30]: 1 µM
inhibition [31]: 14%
IC50 [32]: 1 µM
IC50 (eIF-2-alpha kinase GCN2): 1 µM
IC50 [33]: 1 µM
IC50 [34]: 1 µM
IC50 [35]: > 10 µM (not active)
IC50 [36]: 1 µM
IC50 [37]: 1 µM
IC50 [38]: 1 µM
inhibition [39]: -3%
inhibition [40]: -9%
IC50 (Aurora kinase A): 1 µM
IC50 [41]: 1 µM
SMILES: CN1C(=O)[C@@H](N2CCc3cn(CC4CCS(=O)(=O)CC4)nc3C2=O)COc2ccccc21 [TP-030n]
IC50 [9]: 1 µM
IC50 [16]: 1 µM
IC50 [20]: 1 µM
